Test results: patent US8969861B2, “Method of manufacturing organic electroluminescence display device” (Canon Kabushiki Kaisha, priority 2012, dated 2015)

How the values were obtained:
Assay type in all cases: physicochemical
[1] = Solubility in IPA/water mixed solvent (FIG. 4); conditions: IPA concentration of 80 wt %
Description: The solubility of a compound as a constituent material for each layer in the IPA/water mixed solvent varies depending on the weight ratio of IPA in the mixed solvent. FIG. 4 is a graph showing the solubilities of the compound 1 (fused polycyclic hydrocarbon compound) and the compound A2 (heterocyclic compound) in the IPA/water mixed solvent (polar solvent). Here, in the graph of FIG. 4, the axis of abscissa indicates the weight percent concentration of IPA in the IPA/water mixed solvent, and the axis of ordinate indicates the amount of the fused polycyclic hydrocarbon compound or heterocyclic compound to dissolve in 1 g of the solvent.

[2] = Etching (dissolution) rate of deposited layers in IPA/water mixed solvent; conditions: IPA 60 wt %; for etching rate of the layer: identical etching conditions
Description: In the present invention, a larger etching rate means a higher dissolution rate. In addition, a larger etching rate means a higher solubility of a layer having a material of interest in the solvent (polar solvent). FIG. 3 is a graph showing thickness changes in the compound 1 and the compound A2 over an etching time. […] On the other hand, the thickness of a layer (layer B) formed of the compound A2 as a heterocyclic compound reduces over time. When the etching rates of the respective layers are calculated with their etching conditions made identical to each other, the etching rate of the layer A is 0.008 nm/sec but the etching rate of the layer B is 0.87 nm/sec, that is, a ratio of the latter to the former is about 100.

[3] = Etching of sacrificial layer by spin washing method (FIG. 6); conditions: 60-wt % aqueous solution of IPA; thickness by spectroscopic ellipsometer
Description: The spin washing method involves first dropping a polar solvent 81 onto the sacrificial layer 30 (FIG. 5B), holding the resultant for a predetermined time period (FIG. 5C), then rotating the substrate 10 to splash the polar solvent 81, and drying the substrate 10 by means of the rotation (FIG. 5D). The spin washing method in which the process illustrated in FIGS. 5A to 5D is defined as one cycle is typically repeated a plurality of times. It is to be noted that the polar solvents 81 to be used in the cycle to be performed a plurality of times may be the same every time, or mixed solvents having different compositional ratios may be used in part of the times or every time.
(§1) FIG. 6 is a graph showing a relationship between the total time of etching by the spin washing method and the thickness of the sacrificial layer formed of the compound A2. It is to be noted that in the graph of FIG. 6, the compound A2 is used as a constituent material for the sacrificial layer 30 and a 60-wt % aqueous solution of IPA is used as a polar solvent. […] The thickness of the sacrificial layer was measured with a spectroscopic ellipsometer (HORIBA). […] Although the graph shown in FIG. 6 is merely a specific example, the number of repetition of the process based on the spin washing method can be decided by utilizing the quantitative tendency of the sacrificial layer 30 to reduce shown in FIG. 6.

[4] = Etching of sacrificial layer by dipping method (FIG. 9); conditions: 60-wt % aqueous solution of IPA; thickness by spectroscopic ellipsometer
Description: The dipping method is a method involving loading the substrate 10 in a container storing the polar solvent, dipping the substrate 10 in the polar solvent for a certain time period, and then taking the substrate 10 out of the container. Upon dipping of the substrate 10 in the polar solvent, (at least part of) the sacrificial layer 30 is eluted. At this time, when the concentration of the water-soluble polymer material constituting the intermediate layer 40, which can be dissolved together with the sacrificial layer 30, in the polar solvent is low, the polar solvent can be reused as the polar solvent to be used in first dipping.
The dipping method is performed by, for example, a method to be described below. […]
as §1, with “9” for “6”, “dipping” for “spin washing”, “A2.” for “A2. It is to be noted that in the graph of FIG. 6, the compound A2 is used as a constituent material for the sacrificial layer 30 and a 60-wt % aqueous solution of IPA is used as a polar solvent.”, “9. […]” for “6.”

CC1(C)c2cc(-c3ccc4ccc5cccc6ccc3c4c56)ccc2-c2ccc(-c3ccc4ccc5cccc6ccc3c4c56)cc21 [compound 1]
amount dissolving in 1 g of the IPA/water mixed solvent [1]: 5 µg
etching rate of the layer [2]: 0.008 nm/s

CC1(C)c2ccccc2-c2ccc(-c3ccc4ccc5ccc(-c6ccc7c(c6)C(C)(C)c6ccccc6-7)nc5c4n3)cc21 [compound A2]
amount dissolving in 1 g of the IPA/water mixed solvent [1]: 73 µg
ratio of etching rate of layer B (compound A2) to layer A (compound 1) [2]: about 100
etching rate of the layer [2]: 0.87 nm/s
rate at which the sacrificial layer is etched by one spin washing [3]: about 6.7 nm
rate at which the sacrificial layer was etched by the dipping method [4]: 3.7 nm/time
